From patent US20230293535A1, “ERBB/BTK INHIBITORS” (Dizal (Jiangsu) Pharmaceutical Co., Ltd., priority 2018, published 2023)

Experiments:
[1] = biological target: T1, human EGFR exon 20 V769_D770insASV (Homo sapiens, UniProt P00533, INS769ASV); experiment: EGFR Exon20 ASV insertion cellular phosphorylation inhibition (MSD pEGFR Y1068/total EGFR); type: cell-based; settings: Ba/F3 EGFR ASV ins cells, 4 h compound, p-EGFR(Y1068)/total EGFR;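 note: electrochemiluminescent readout on an MSD SECTOR Imager, IL3-independent transduced cells in medium with 1% FBS, compound concentration series at 37 °C and 5% CO2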
T1 construct: expressed in transfected cells; host or cells: Ba/F3 (DSMZ ACC-300), lentiviral transduction, puromycin selection, IL3 depletion
T1 sequence (P00533 with tags, fused parts or gaps INS769ASV): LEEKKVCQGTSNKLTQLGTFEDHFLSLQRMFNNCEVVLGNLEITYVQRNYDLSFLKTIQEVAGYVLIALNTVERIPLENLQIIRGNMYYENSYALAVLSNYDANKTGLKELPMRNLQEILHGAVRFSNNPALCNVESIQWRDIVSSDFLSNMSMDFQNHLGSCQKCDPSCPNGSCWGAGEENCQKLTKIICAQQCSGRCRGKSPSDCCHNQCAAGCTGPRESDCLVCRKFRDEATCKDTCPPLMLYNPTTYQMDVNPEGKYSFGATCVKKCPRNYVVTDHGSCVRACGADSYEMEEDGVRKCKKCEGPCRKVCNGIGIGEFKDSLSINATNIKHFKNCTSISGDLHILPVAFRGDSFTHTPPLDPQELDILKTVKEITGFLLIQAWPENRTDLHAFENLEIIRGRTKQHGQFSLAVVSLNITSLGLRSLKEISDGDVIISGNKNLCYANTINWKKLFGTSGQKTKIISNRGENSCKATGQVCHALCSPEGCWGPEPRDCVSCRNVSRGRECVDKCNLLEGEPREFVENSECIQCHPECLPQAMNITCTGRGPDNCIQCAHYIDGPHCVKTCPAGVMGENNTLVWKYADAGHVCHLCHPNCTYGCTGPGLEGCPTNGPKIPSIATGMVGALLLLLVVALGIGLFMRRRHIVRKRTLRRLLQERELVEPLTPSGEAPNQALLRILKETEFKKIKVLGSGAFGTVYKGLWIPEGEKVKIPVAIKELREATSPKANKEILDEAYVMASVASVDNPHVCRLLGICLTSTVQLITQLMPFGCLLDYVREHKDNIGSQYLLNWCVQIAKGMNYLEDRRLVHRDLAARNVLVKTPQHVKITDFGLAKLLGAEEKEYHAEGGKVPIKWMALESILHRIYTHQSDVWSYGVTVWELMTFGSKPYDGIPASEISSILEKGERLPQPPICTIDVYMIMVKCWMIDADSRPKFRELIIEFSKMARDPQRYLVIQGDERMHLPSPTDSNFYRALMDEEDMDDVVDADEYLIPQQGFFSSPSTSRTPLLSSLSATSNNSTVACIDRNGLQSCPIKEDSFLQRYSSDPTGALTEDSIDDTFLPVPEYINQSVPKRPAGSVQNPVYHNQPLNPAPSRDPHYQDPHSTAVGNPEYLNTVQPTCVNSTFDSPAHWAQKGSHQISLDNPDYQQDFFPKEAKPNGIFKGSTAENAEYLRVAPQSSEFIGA

TMD-8 cells = experiment: BTK (wt) cell proliferation, TMD-8 (CellTiter-Glo, 72 h); type: cell-based; settings: Homo sapiens, TMD8, 72 h, TMD-8 cells, 72 h, CellTiter-Glo; read-out: BTK WT TMD-8 GI50;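 note: viable cells quantified by ATP-based luminescence, proliferation expressed as percent of DMSO control after subtracting a time-zero baseline plate read at dosing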
[2] = In vitro human hepatocytes clearance assay; settings: both, human, cryopreserved human hepatocytes (suspension), human hepatocytes Clint (µL/min/10^6cells), mixed gender human hepatocytes, incubation up to 100 min
[3] = test system: NSCLC with EGFR sensitizing, double or uncommon mutation; experiment: Anti-tumor activity in NSCLC patients with EGFR mutation beyond Exon20ins; type: in vivo, human; settings: 50-400 mg once daily oral
Description: Compound 52 was explored at 50 mg, 100 mg, 200 mg, 300 mg and 400 mg once daily with oral administration in 12 non-small cell lung cancer (NSCLC) patients with EGFR sensitizing mutation (L858R or 19del), sensitizing (L858R or 19del) and T790M double mutation (double mutation) or less common non-resistant mutation (uncommon mutation, including Gly719Xaa, Leu861Gln, or Ser768Ile mutation). […] In 2 patients with uncommon mutation, 1 SD and 1 PD was observed after Compound 52 treatment.

[4] = test system: NSCLC with EGFR Exon20ins; experiment: Anti-tumor activity in platinum-pretreated NSCLC patients with EGFR Exon20 insertion mutations; type: in vivo, human
BTK [5] = biological target: T2, BTK (Homo sapiens, UniProt Q06187); experiment: BTK target site occupancy ELISA (Ramos); type: cell-based; design: endogenous in cells; host or cells: Ramos; settings: BTK receptor occupancy, read-out: Occupancy (Romas) IC50
T2 sequence (Q06187 whole entry): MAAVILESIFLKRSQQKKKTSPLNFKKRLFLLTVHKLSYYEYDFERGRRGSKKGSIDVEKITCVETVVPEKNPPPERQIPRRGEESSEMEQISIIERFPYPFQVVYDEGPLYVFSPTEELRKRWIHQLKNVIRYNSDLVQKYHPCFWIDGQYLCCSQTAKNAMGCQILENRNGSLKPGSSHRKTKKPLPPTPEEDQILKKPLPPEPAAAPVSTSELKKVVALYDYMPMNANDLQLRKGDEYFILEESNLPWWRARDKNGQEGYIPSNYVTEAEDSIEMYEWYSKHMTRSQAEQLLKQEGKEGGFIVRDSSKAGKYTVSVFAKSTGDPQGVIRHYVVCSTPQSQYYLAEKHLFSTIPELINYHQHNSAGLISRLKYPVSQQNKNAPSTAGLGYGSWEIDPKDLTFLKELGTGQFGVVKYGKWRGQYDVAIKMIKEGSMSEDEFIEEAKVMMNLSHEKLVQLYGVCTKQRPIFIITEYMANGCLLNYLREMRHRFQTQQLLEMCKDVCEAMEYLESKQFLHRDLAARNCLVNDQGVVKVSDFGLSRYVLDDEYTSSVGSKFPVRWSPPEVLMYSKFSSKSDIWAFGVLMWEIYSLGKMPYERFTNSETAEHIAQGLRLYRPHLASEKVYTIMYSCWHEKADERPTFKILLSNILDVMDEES
Description: (§1) An enzyme-linked immunosorbent assay (ELISA) method for the detection of free uninhibited Btk in mouse and human lysates. Human or mouse whole blood were incubated with compound for 2 hour at 37° C. Whole blood were lysed in ice-cold lysis buffer containing 50 mM Tris-HCl, pH 7.5, 150 mM NaCl, 1 mM EDTA,1% Triton X-100. […] Samples were transferred to a streptavidin-coated 96-well ELISA plate and mixed while shaking for 1 hour at room temperature. The α-Btk antibody (1:500; clone number D3H5, Cell signaling Technology, Danvers, MA, USA) was then added to the well and incubated for 1 hour at room temperature. After wash, goat α-rabbit-FW (1:5000 dilution in PBS+ 0.05% Tween-20 + 1% BSA) was added to each well and incubated for 1 h at room temperature. The ELISA was developed with addition of tetramethyl benzidine (TMB) followed by Stop Solution and read at OD 450 nm.

[6] = Rat pharmacokinetic study after oral administration (SOA); type: in vivo; settings: male Han Wistar rats
Summary of the method: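 Male Han Wistar rats (n=6) received 10 mg/kg orally in 0.5% Tween-80/0.5% HPMC. Portal vein and cardiac blood was sampled 0.5–16 h post-dose and plasma was analysed by LC/MS/MS after acetonitrile precipitation. Portal vein AUC, systemic AUC and Cmax were derived.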

[7] = biological target: T3, human Her2 exon 20 insertion mutation YVMA (Homo sapiens, UniProt P04626, INS775YVMA); experiment: Her2 Exon 20 YVMA insertion cellular phosphorylation inhibition (MSD p-Her2 Y1248/total Her2); type: cell-based; settings: Her2 YVMAins cells, 4 h compound;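 note: lentivirally transduced NIH-3T3 cells in 1% FBS medium, electrochemiluminescent MSD read-out, graded compound concentrations at 37 °C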
T3 construct: expressed in transfected cells; host or cells: NIH-3T3, lentiviral transduction, puromycin selection
T3 sequence (P04626 with tags, fused parts or gaps INS775YVMA): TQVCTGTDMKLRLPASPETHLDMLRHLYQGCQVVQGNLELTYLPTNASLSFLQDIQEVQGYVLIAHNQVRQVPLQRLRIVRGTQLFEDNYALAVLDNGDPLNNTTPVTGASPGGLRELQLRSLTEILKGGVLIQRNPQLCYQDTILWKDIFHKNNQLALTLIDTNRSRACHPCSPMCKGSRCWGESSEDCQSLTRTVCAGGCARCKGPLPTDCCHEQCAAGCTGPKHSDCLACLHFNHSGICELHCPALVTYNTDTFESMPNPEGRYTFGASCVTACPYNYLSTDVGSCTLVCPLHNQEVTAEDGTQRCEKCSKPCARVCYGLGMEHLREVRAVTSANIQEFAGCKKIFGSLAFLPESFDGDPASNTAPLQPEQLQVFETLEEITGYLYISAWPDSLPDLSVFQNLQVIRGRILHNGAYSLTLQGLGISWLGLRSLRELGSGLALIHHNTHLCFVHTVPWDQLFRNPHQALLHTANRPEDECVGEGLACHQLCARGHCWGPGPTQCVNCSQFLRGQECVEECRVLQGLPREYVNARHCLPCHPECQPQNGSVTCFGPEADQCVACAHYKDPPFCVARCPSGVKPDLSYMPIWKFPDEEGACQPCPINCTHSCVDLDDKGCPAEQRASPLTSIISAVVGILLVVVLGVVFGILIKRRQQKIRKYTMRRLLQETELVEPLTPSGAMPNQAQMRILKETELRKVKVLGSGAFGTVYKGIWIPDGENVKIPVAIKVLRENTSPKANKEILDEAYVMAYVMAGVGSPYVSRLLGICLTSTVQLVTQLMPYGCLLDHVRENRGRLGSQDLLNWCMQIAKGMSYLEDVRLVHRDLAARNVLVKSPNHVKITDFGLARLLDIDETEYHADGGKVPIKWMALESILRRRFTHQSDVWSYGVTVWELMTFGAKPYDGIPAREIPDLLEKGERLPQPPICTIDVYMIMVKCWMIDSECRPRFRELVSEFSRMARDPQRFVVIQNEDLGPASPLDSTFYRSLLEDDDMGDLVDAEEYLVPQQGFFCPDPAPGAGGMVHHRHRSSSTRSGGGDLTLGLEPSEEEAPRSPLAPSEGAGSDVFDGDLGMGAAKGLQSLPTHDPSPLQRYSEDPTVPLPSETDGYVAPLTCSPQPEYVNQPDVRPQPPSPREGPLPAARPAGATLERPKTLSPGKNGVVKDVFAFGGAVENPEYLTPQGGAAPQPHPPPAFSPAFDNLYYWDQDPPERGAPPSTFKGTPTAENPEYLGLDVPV

Phospho-BTK (Tyr223) = biological target: T4, Phospho-BTK (Tyr223) (Homo sapiens, UniProt Q06187); experiment: p-BTK assay in Ramos cells (HTRF Phospho-BTK Tyr223); type: cell-based; settings: pervanadate stimulated, read-out: p-BTK (Romas) IC50
T4 construct: endogenous in cells; host or cells: Ramos
T4 sequence (Q06187 whole entry): as the sequence (Q06187 whole entry) above
Description: The assay plates were then incubated for 30 minutes at 37° C., 5% CO2. 300 uM Per vanadate (3X) was added to each well and the assay plates were again incubated for 60 minutes at 37° C., 5% CO2. Phospho-BTK (Tyr223) is detected using the HTRF® reagents (Cisbio) according to the manufacturer’s one-plate assay protocol.

WT EGFR cell line A-431 = experiment: Cell proliferation, WT EGFR A431 (CellTiter-Glo, 72 h); type: cell-based; settings: Homo sapiens, A-431, 72 h, A431, 72 h proliferation; read-out: EGFR WT A431 GI50;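 note: proliferation from a luminescent ATP viability signal, expressed as 100 × (treated minus time-zero plate) over (DMSO control minus time-zero plate), cells grown with 10% FBS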
Description: WT or mutant cells were seeded in 384 well plates at appropriate concentrations with corresponding growth media supplemented with 10% FBS, for each experiment, identical plates were prepared in duplicates, and the plates were incubated overnight. On the next day, one of each duplicated plates was dosed with tested compounds at a series of concentrations, and another one of the duplicated plate was analysied for G0 value. The dosed plates were incubate for another 72 h at 37° C. with 5% CO2 and the number of viable cells in each well of the G0 plates or the dosed plates were measured by CellTiter-Glo® Luminescent Cell Viability Assay (Promega). This assay is a luminescent method for determining the number viable cells through measurement of cellular ATP concentration by detection of luciferase activity. Detection reagents (15 µl) was dispensed into per well, and the plates were incubate for 30 min at room temperature. Then, the luminescence in each well was measured using the Envision plate reader (PerkinElmer). The percentage of proliferation was calculated based on the formula: %Proliferation= 100 × (G3 value of sample well-Go value)/(G3 value of DMSO control-Go value).

EGFR L858R&T790M = biological target: T5, EGFR L858R&T790M (Homo sapiens, UniProt P00533, L858R/T790M); experiment: EGFR L858R and T790M cellular phosphorylation inhibition in NCI-H1975 (MSD); type: cell-based; settings: NCI-H1975 cells, 4 h compound, p-EGFR(Y1068)/total EGFR; read-out: EGFR L858R and T790M mutation IC50;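 note: phosphorylated and total EGFR detected by electrochemiluminescence, cells exposed to compound in medium containing 1% FBS at 37 °C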
T5 construct: host or cells: NCI-H1975
T5 sequence (P00533 25-1210 T790M/L858R): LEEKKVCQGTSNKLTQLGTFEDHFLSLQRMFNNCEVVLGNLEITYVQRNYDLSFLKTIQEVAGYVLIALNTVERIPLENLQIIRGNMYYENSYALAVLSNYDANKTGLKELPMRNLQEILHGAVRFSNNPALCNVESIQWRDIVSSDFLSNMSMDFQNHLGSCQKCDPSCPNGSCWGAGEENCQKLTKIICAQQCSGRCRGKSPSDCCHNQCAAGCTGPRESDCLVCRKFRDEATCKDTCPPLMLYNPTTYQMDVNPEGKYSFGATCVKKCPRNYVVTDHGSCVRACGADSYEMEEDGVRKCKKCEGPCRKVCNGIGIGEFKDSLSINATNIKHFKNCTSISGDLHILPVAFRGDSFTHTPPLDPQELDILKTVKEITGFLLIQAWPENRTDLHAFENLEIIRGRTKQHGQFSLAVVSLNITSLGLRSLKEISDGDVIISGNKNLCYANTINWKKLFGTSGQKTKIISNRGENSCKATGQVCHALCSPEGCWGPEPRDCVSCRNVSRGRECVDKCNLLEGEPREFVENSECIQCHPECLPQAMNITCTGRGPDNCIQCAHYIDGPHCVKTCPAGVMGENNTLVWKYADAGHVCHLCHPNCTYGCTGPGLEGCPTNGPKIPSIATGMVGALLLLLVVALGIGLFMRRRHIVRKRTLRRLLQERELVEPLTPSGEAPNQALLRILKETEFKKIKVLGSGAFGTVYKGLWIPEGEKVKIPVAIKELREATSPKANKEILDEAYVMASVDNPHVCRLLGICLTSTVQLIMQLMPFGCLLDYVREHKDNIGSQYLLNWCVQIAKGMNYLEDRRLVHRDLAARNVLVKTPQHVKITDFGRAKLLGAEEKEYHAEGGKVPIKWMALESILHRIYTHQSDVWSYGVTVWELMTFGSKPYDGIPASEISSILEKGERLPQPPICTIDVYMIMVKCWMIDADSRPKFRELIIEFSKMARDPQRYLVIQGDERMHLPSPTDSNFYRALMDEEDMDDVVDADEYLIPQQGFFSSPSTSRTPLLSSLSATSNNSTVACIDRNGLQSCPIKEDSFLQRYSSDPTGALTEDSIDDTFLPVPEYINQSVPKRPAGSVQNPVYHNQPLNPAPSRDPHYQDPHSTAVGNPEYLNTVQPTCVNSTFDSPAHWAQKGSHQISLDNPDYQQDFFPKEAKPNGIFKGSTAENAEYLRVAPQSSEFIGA

WT EGFR = biological target: T6, WT EGFR (Homo sapiens, UniProt P00533); experiment: WT EGFR cellular phosphorylation inhibition in A-431 (hEGF stimulated, MSD); type: cell-based; settings: A431 cells, 4 h compound, then 100 ng/ml hEGF 10 min;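 note: electrochemiluminescence read-out of EGFR Tyr1068 phosphorylation expressed as ratio to total EGFR, cells kept in medium with 1% FBS, compounds tested as a concentration series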
T6 construct: host or cells: A-431

BTK [8] = biological target: T2, BTK; experiment: BTK target site occupancy ELISA (PBMC); type: cell-based; settings: BTK receptor occupancy
Description: as §1

[9] = test system: Her2 exon 20 insertion YVMA transduced NIH-3T3 cell line; experiment: Cell proliferation, Her2 YVMAins NIH-3T3 (CellTiter-Glo, 72 h); type: cell-based; settings: Mus musculus, NIH3T3, 72 h, Her2 YVMAins cells, 72 h proliferation; read-out: Her2 Exon 20 YVMA insertion GI50;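 note: viable cells quantified by ATP luminescence, growth over a day-zero baseline plate expressed as percent of DMSO control growth, compound dilution series in 10% FBS medium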
[10] = test system: NCI-H1975 EGFR L858R/T790M cells; experiment: Cell proliferation, NCI-H1975 EGFR L858R/T790M (CellTiter-Glo, 72 h); type: cell-based; settings: Homo sapiens, NCI-H1975, 72 h, NCI-H1975, 72 h proliferation; read-out: EGFR L858R and T790M mutation GI50;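 note: viable cells quantified by luciferase-based ATP luminescence, proliferation expressed relative to DMSO-treated wells (100%) after subtracting a parallel plate read at the time of dosing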
Ba/F3 EGFR ASV ins cells = experiment: Cell proliferation, Ba/F3 EGFR ASV ins (CellTiter-Glo, 72 h); type: cell-based; settings: Ba/F3 EGFR, 72 h, Ba/F3 EGFR ASV ins, 72 h proliferation; read-out: EGFR Exon20 ASV insertion GI50;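 note: IL3-independent Ba/F3 cells transduced with EGFR V769_D770insASV, cellular ATP luminescence after compound exposure, growth relative to DMSO control with the day-0 baseline reading subtracted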
[11] = 2 patients with uncommon mutation
[12] = 4 NSCLC patients with EGFR sensitizing mutation
[13] = 5 NSCLC patients with EGFR double mutation

Compound: C=CC(=O)Nc1cc(Nc2nccc(Nc3cc(Cl)c(F)cc3C(C)(C)O)n2)c(OC)cc1N1CC[C@@H](N(C)C)C1 [Compound 52, (R)-N-(5-(4-(5-chloro-4-fluoro-2-(2-hydroxypropan-2-yl)phenylamino)pyrimidin-2-ylamino)-2-(3-(dimethylamino)pyrrolidin-1-yl)-4-methoxyphenyl)a crylamide]
- IC50 [1]: 20.4 nM
- GI50 (TMD-8 cells): 5.8 nM
- hepatocyte CLint at 1 µM [2]: 3.29 µL/min/1e6 cells
- patients with PD [3, 11]: 1
- patients with SD [3, 11]: 1
- patients with PD [3, 12]: 1
- patients with SD [3, 12]: 2
- patients with best response of PR [3, 12]: 1
- patients with best response of partial response (PR) [3, 13]: 2
- patients with progressive disease (PD) [3, 13]: 2
- anti-tumor activity in earlier clinical studies [4]: Significant anti-tumor activities
- IC50 (BTK [5]): 0.6 nM
- SOA DN AUCSYS (ng·h/mL)/(mg/kg) ([6]; dose-normalised systemic AUC): 103 (ng·h/mL)/(mg/kg)
- Cmax ([6]; rat, plasma, nominal 10 mg/kg (actual dose in c1)): 99 ng/mL
- IC50 [7]: 7.5 nM
- IC50 (Phospho-BTK (Tyr223)): 2.9 nM
- GI50 (WT EGFR cell line A-431): 47.1 nM
- IC50 (EGFR L858R&T790M): 1.1 nM
- IC50 (WT EGFR): 80.4 nM
- IC50 (BTK [8]): 2.9 nM
- GI50 [9]: 101 nM
- GI50 [10]: 3.3 nM
- GI50 (Ba/F3 EGFR ASV ins cells): 83.2 nM
